Reference: ChEMBL document CHEMBL4680145, “Expansion of chemical space based on a pyrrolo[1,2-a]pyrazine core: Synthesis and its anticancer activity in prostate cancer and breast cancer cells” (Eur J Med Chem, 2020)
Calls of active or inactive are those of the source. The rule behind the calls is not given here.

Experiments:
PC-3 [1] = assay: Cytotoxicity against human PC-3 cells assessed as cell viability at 30 uM incubated for 48 hrs by MTS assay relative to control; assay type: functional; details: read-out: Activity
MCF7 [2] = assay: Cytotoxicity against human MCF7 cells assessed as cell viability at 30 uM incubated for 48 hrs by MTS assay relative to control; assay type: functional; details: read-out: Activity
PC-3 [3] = assay: Cytotoxicity against human PC-3 cells assessed as reduction in cell viability incubated for 48 hrs by MTS assay; assay type: functional, cell-based; details: PC-3, 48 h
MCF7 [4] = assay: Cytotoxicity against human MCF7 cells assessed as reduction cell viability incubated for 48 hrs by MTS assay; assay type: functional, cell-based; details: MCF7, 48 h
PC-3 [5] = assay: Antimigratory activity against human PC-3 cells assessed as reduction in cell migration measured every 2 hrs for 24 hrs by wound healing assay; assay type: functional, cell-based; details: dose 1-10 µM
MCF7 [6] = assay: Antimigratory activity against human MCF7 cells assessed as reduction in cell migration measured every 2 hrs for 24 hrs by wound healing assay; assay type: functional, cell-based; details: dose 1-10 µM
PC-3 [7] = assay: Induction of apoptosis in human PC-3 cells assessed as increase in caspase-3 activity incubated for 24 hrs by caspase-3 substrate and Hoechst 33342 dye based fluorescence assay; assay type: functional, cell-based; details: dose 1-10 µM
MCF7 [8] = assay: Induction of apoptosis in human MCF7 cells assessed as increase in caspase-3 activity incubated for 24 hrs by caspase-3 substrate and Hoechst 33342 dye based fluorescence assay; assay type: functional, cell-based; details: dose 1-10 µM
PC-3 [9] = assay: Induction of apoptosis in human PC-3 cells assessed as increase in caspase-3 activity at 10 uM incubated for 24 hrs in presence of Ac-DEVD-CHO by Hoechst 33342 dye based fluorescence assay; assay type: functional, cell-based
MCF7 [10] = assay: Induction of apoptosis in human MCF7 cells assessed as increase in caspase-3 activity at 10 uM incubated for 24 hrs in presence of Ac-DEVD-CHO by Hoechst 33342 dye based fluorescence assay; assay type: functional, cell-based
PC-3 [11] = assay: Induction of apoptosis in human PC-3 cells assessed as increase in caspase-3 activity at 10 uM incubated for 24 hrs by Hoechst 33342 staining based fluorescence microscopy; assay type: functional, cell-based
MCF7 [12] = assay: Induction of apoptosis in human MCF7 cells assessed as increase in caspase-3 activity at 10 uM incubated for 24 hrs by Hoechst 33342 staining based fluorescence microscopy; assay type: functional, cell-based
PC-3 [13] = assay: Induction of apoptosis in human PC-3 cells assessed as increase in cleaved PARP incubated for 24 hrs by Western blot analysis; assay type: functional, cell-based; details: dose 3-30 µM
MCF7 [14] = assay: Induction of apoptosis in human MCF7 cells assessed as increase in cleaved PARP incubated for 24 hrs by Western blot analysis; assay type: functional, cell-based

SMILES | viability at 30 µM (PC-3 [1]) [%] | viability at 30 µM (MCF7 [2]) [%] | also measured
Cc1ccc([C@H]2N=Cc3cccn3[C@@H]2C(=O)c2ccccc2)cc1 (relative stereo) | 108 | 108 | 
O=C(c1ccc(F)cc1)[C@@H]1[C@@H](c2ccccc2)N=Cc2cccn21 (relative stereo) | 76 | 70.3 | 
COc1ccc([C@H]2N=Cc3cccn3[C@@H]2C(=O)c2cccc(OC)c2)cc1 (relative stereo) | 83.8 | 77.9 | 
O=C(c1ccccc1)[C@@H]1[C@@H](c2cc3ccccc3[nH]2)N=Cc2cccn21 (relative stereo) | 92.1 | 106 | 
O=C(c1ccc(Cl)cc1)[C@@H]1[C@@H](c2ccccc2)N=Cc2cccn21 (relative stereo) | 99.9 | 99.3 | 
O=C(c1ccc(F)cc1)[C@@H]1[C@@H](c2ccncc2)N=Cc2cccn21 (relative stereo) | 100 | 78.5 | 
O=C(C[N+]1=Cc2cccn2[C@H](C(=O)c2ccc(Br)cc2)[C@H]1c1ccccc1)c1ccc(Cl)cc1 (relative stereo) | 80.8 | 82.5 | 
O=C(c1ccc(Br)cc1)c1c(-c2ccccc2)ncc2cccn12 | 5.8 | 37 | IC50 (PC-3 [3]): 7.17 µM
COc1ccccc1[C@H]1N=Cc2cccn2[C@@H]1C(=O)c1ccc(F)cc1 (relative stereo) | 86.4 | 69.3 | 
COc1ccc([C@H]2N=Cc3cccn3[C@@H]2C(=O)c2ccc(F)cc2)cc1OC (relative stereo) | 96.7 | 72.8 | 
COc1ccccc1[C@H]1N=Cc2cccn2[C@@H]1C(=O)c1ccccc1 (relative stereo) | 95.5 | 107 | 
C[N+]1=Cc2cccn2[C@H](C(=O)c2ccc(Br)cc2)[C@H]1c1ccccc1 (relative stereo) | 97.9 | 98.1 | 
COc1cc(OC)cc([C@H]2N=Cc3cccn3[C@@H]2C(=O)c2ccccc2)c1 (relative stereo) | 106 | 102 | 
Cc1ccc([C@H]2N=Cc3cccn3[C@@H]2C(=O)c2ccc(Cl)cc2)cc1 (relative stereo) | 104 | 100 | 
COc1ccc([C@H]2N=Cc3cccn3[C@@H]2C(=O)c2ccc(Br)cc2)cc1 (relative stereo) | 28.6 | 39.8 | IC50 (PC-3 [3]): 20.6 µM
O=C(c1ccccc1)[C@@H]1[C@@H](c2ccccc2)N=Cc2cccn21 (relative stereo) | 106 | 104 | 
O=C(c1ccccc1)[C@@H]1[C@@H](c2ccc(Cl)cc2)N=Cc2cccn21 (relative stereo) | 84.8 | 102 | 
COc1ccc([C@@H]2[C@@H](C(=O)c3ccc(Br)cc3)n3cccc3C=[N+]2CC(=O)c2ccccc2)cc1 (relative stereo) | 6.3 | 6.4 | IC50 (PC-3 [3]): 2.19 µM; IC50 (MCF7 [4]): 2450 nM; inhibition (PC-3 [5]): Dose-dependent effect; inhibition (MCF7 [6]): Dose-dependent effect
Cc1ccc([C@H]2N=Cc3cccn3[C@@H]2C(=O)c2ccc(Br)cc2)cc1 (relative stereo) | 99 | 99.9 | 
COc1cccc(C(=O)[C@@H]2[C@@H](c3ccc(Cl)cc3)N=Cc3cccn32)c1 (relative stereo) | 99.6 | 118 | 
COc1ccccc1[C@H]1N=Cc2cccn2[C@@H]1C(=O)c1ccc(Cl)cc1 (relative stereo) | 99.5 | 96.5 | 
O=C(c1ccc(Br)cc1)[C@@H]1[C@@H](c2ccco2)N=Cc2cccn21 (relative stereo) | 99.2 | 96.5 | 

SMILES | viability at 30 µM (PC-3 [1]) [%] | viability at 30 µM (MCF7 [2]) [%] | also measured
Cc1ccc([C@H]2N=Cc3cccn3[C@@H]2C(=O)c2ccc(F)cc2)cc1 (relative stereo) | 99.8 | 111 | 
O=C(c1ccc(Cl)cc1)[C@@H]1[C@@H](c2ccc[nH]2)N=Cc2cccn21 (relative stereo) | 102 | 102 | 
COc1ccc(C(=O)[C@@H]2[C@@H](c3ccc(OC)c(OC)c3)N=Cc3cccn32)cc1 (relative stereo) | 102 | 98 | 
COc1ccc(C(=O)[C@@H]2[C@@H](c3ccco3)N=Cc3cccn32)cc1 (relative stereo) | 55.7 | 99.9 | 
COc1cccc(C(=O)[C@@H]2[C@@H](c3ccccc3)N=Cc3cccn32)c1 (relative stereo) | 104 | 104 | 
O=C(C[N+]1=Cc2cccn2[C@H](C(=O)c2ccc(F)cc2)[C@H]1c1ccc(Br)cc1)c1ccccc1 (relative stereo) | 3.4 | 3.6 | IC50 (PC-3 [3]): 1.18 µM; IC50 (MCF7 [4]): 1950 nM; inhibition (PC-3 [5]): Dose-dependent effect; inhibition (MCF7 [6]): Dose-dependent effect; Activity (PC-3 [7]): Dose-dependent effect; Activity (MCF7 [8]): Dose-dependent effect; Activity (PC-3 [9]): inactive; Activity (MCF7 [10]): inactive; Activity (PC-3 [11]): Active; Activity (MCF7 [12]): Active; Activity (PC-3 [13]): Dose-dependent effect; Activity (MCF7 [14]): Dose-dependent effect
O=C(c1ccc(Br)cc1)[C@@H]1[C@@H](c2ccccc2)[N+](Cc2ccccc2)=Cc2cccn21 (relative stereo) | 97.9 | 98.1 | 
O=C(c1ccc(F)cc1)[C@@H]1[C@@H](c2ccc(Br)cc2)N=Cc2cccn21 (relative stereo) | 18.5 | 31.1 | IC50 (PC-3 [3]): 16.4 µM
O=C(c1ccccc1)[C@@H]1[C@@H](c2ccc([N+](=O)[O-])cc2)N=Cc2cccn21 (relative stereo) | 86.9 | 85.1 | 
COc1ccc(C(=O)C[N+]2=Cc3cccn3[C@H](C(=O)c3ccc(Br)cc3)[C@H]2c2ccccc2)cc1 (relative stereo) | 56 | 54.5 | 
COc1ccc(C(=O)[C@@H]2[C@@H](c3ccc(Br)cc3)N=Cc3cccn32)cc1 (relative stereo) | 96.4 | 100 | 
O=C(c1ccccc1)[C@@H]1[C@@H](c2ccc(Br)cc2)N=Cc2cccn21 (relative stereo) | 83.3 | 99.9 | 
O=C(C[N+]1=Cc2cccn2[C@H](C(=O)c2ccc(Br)cc2)[C@H]1c1ccccc1)c1ccccc1 (relative stereo) | 9.1 | 25.5 | IC50 (PC-3 [3]): 3.45 µM; IC50 (MCF7 [4]): 3650 nM; inhibition (PC-3 [5]): Dose-dependent effect; inhibition (MCF7 [6]): Dose-dependent effect; Activity (PC-3 [7]): Dose-dependent effect; Activity (MCF7 [8]): Dose-dependent effect; Activity (PC-3 [9]): inactive; Activity (MCF7 [10]): inactive; Activity (PC-3 [11]): Active; Activity (MCF7 [12]): Active; Activity (PC-3 [13]): Dose-dependent effect; Activity (MCF7 [14]): Dose-dependent effect
O=C(C[N+]1=Cc2cccn2[C@H](C(=O)c2ccc(Br)cc2)[C@H]1c1ccccc1)c1ccc(F)cc1 (relative stereo) | 10.7 | 33.8 | 
O=C(c1ccc(Br)cc1)[C@@H]1[C@@H](c2ccccn2)N=Cc2cccn21 (relative stereo) | 73.2 | 67.5 | 
O=C(c1ccc(Br)cc1)[C@@H]1[C@@H](c2ccccc2)N=Cc2cccn21 (relative stereo) | 68.5 | 66.9 | 
CCOC(=O)C[N+]1=Cc2cccn2[C@H](C(=O)c2ccc(Br)cc2)[C@H]1c1ccccc1 (relative stereo) | 10.7 | 24 | IC50 (PC-3 [3]): 8.74 µM
O=C(c1ccccc1)[C@@H]1[C@@H](c2ccco2)N=Cc2cccn21 (relative stereo) | 59 | 95.3 | 
COc1cccc(C(=O)[C@@H]2[C@@H](c3ccncc3)N=Cc3cccn32)c1 (relative stereo) | 91.4 | 95.5 | 
O=C(c1ccc(F)cc1)[C@@H]1[C@@H](c2ccco2)N=Cc2cccn21 (relative stereo) | 99.4 | 70 | 
COc1ccc(C(=O)[C@@H]2[C@@H](c3ccc(C)cc3)N=Cc3cccn32)cc1 (relative stereo) | 81.3 | 77.4 | 
